Experimental data: PubChem BioAssay (NCI)
“And” between values parts separate entries of the source, which are not always exact repeats. Equal entries are not always repeated.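 Assay format: 96-well plates, 48-hour exposure. Here, GI50 denotes the concentration required for 50% inhibition of growth. The concentration for full growth arrest is given as TGI.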 Where a SMILES comes first, the peptide text is derived from it. The star is where a group is joined. Boc = CC(C)(C)OC(=O)*

Legend:
Assay in all cases: NCI tumour cell line growth inhibition, 48 h
COLO 205 colon = test system: COLO 205 colon
EKVX NSCLC = test system: EKVX NSCLC
MCF7 breast = test system: MCF7 breast
MOLT-4 leukemia = test system: MOLT-4 leukemia
SNB-75 CNS = test system: SNB-75 CNS
UACC-257 melanoma = test system: UACC-257 melanoma
UACC-62 melanoma = test system: UACC-62 melanoma
SR leukemia = test system: SR leukemia

SMILES	GI50 (COLO 205 colon)	TGI (COLO 205 colon)	GI50 (EKVX NSCLC)	TGI (EKVX NSCLC)	GI50 (MCF7 breast)	TGI (MCF7 breast)	GI50 (MOLT-4 leukemia)	TGI (MOLT-4 leukemia)	GI50 (SNB-75 CNS)	TGI (SNB-75 CNS)	GI50 (UACC-257 melanoma)	TGI (UACC-257 melanoma)	GI50 (UACC-62 melanoma)	TGI (UACC-62 melanoma)	GI50 (SR leukemia)	TGI (SR leukemia)
CC(C)=CCc1cc(O)cc2c1OC(C=C(C)C)C1=C2C(=O)C2=C(C1=O)S(=O)(=O)CCN2 (stereo not given)	5.42 µM	> 16.7 µM	3.3 µM	9.16 µM	2.79 µM	6.97 µM	3.4 µM	8.99 µM	2.6 µM	6.39 µM	2.56 µM	4.97 µM	2.81 µM	5.46 µM	–	–
O=C(Nc1ccc(Cl)c(C(F)(F)F)c1)c1ccc(NC2=C(Cl)C(=O)N(Cc3ccccc3)C2=O)cc1	19.2 µM	56.8 µM	11.5 µM	34.5 µM	–	–	2.89 µM	> 100 µM	13.8 µM	33.9 µM	16.3 µM	42.7 µM	16.6 µM	30.2 µM	1.65 µM	4.33 µM
CN(C)c1ncnc2c1ncn2CCn1cnc2c(N(C)C)ncnc21	–	> 100 µM	–	> 100 µM	–	> 100 µM	–	–	–	> 100 µM	–	> 100 µM	–	> 100 µM	–	> 100 µM
COC(=O)C(C)NC(=O)C(CCSC)NC(=O)C(Cc1ccccc1)NC(=O)OC(C)(C)C (stereo not drawn) (Boc-Phe-Met-Ala-OMe; configuration not given here)	24.2 µg/mL	47.4 µg/mL and > 100 µM	–	–	31.7 µg/mL	> 100 µM	18.6 µg/mL	40.2 µg/mL and > 100 µM	99.7 µg/mL	> 100 µM	–	> 100 µM	28.2 µg/mL	> 100 µM	21.4 µg/mL	44.8 µg/mL and > 100 µM
Clc1nc(Cl)nc(Nc2cccc3ccccc23)n1	> 100 µM	> 100 µM	–	–	36.3 µM	> 100 µM	40.3 µM	> 100 µM	> 100 µM	> 100 µM	> 100 µM	> 100 µM	82.5 µM	> 100 µM	18.3 µM	48.3 µM
COc1ccc(Cn2c(N)c(S(=O)(=O)c3ccc(Cl)cc3)c3nc(C#N)c(C#N)nc32)cc1	> 50 µM	> 50 µM	> 50 µM	> 50 µM	5.85 µM	> 50 µM	–	–	> 50 µM	> 50 µM	> 50 µM	> 50 µM	4.36 µM	17.8 µM	29.9 µM	> 50 µM
COc1ccc(-c2nnc(N3CCN(C(=O)CN4CCN(c5ccccc5)CC4)CC3)nc2-c2ccc(OC)cc2)cc1	2.57 µM	57.2 µM	4.91 µM	> 100 µM	2.8 µM	> 100 µM	2.04 µM	6.64 µM	14.4 µM	48.7 µM	6.17 µM	> 100 µM	6.48 µM	40 µM	–	–
Oc1ccc2ccccc2c1N=Nc1ccc(Br)cc1	–	> 100 µM	–	> 100 µM	–	–	–	> 100 µM	–	> 100 µM	–	> 100 µM	–	> 100 µM	–	> 100 µM
CCc1c(Cl)c(C)cc(O)c1Cl	–	> 100 µM	–	> 100 µM	–	> 100 µM	–	95.2 µM	–	> 100 µM	–	99.7 µM	–	> 100 µM	–	–
Oc1ccc(Nc2c3ccccc3nc3occ(Cl)c23)cc1	4.12 µM	> 100 µM	14.8 µM	> 100 µM	3.38 µM	11.3 µM	3.14 µM	13.2 µM	–	–	–	–	2.4 µM	10.4 µM	2.3 µM	8.62 µM
O=[N+]([O-])c1ccc(CI)cc1	2 µM	3.76 µM	–	–	3.08 µM	17.2 µM	1.32 µM	7.21 µM	3.27 µM	15.5 µM	3.47 µM	15.5 µM	2.94 µM	12.2 µM	2.24 µM	10.3 µM
Nc1c(C(=O)c2ccccc2)cnn1-c1ccc(F)cc1	> 25 µM	> 25 µM	–	–	> 25 µM	> 25 µM	> 25 µM	> 25 µM	> 25 µM	> 25 µM	> 25 µM	> 25 µM	> 25 µM	> 25 µM	> 25 µM	> 25 µM
Cc1nc2cc(Nc3nc(Nc4ccc(F)cc4)nc(-c4cccs4)n3)ccc2n1Cc1ccccc1	3.7 µM	12.9 µM	–	–	2.15 µM	7.91 µM	2.97 µM	9.3 µM	2.94 µM	> 100 µM	5.42 µM	30.1 µM	–	–	2.56 µM	7.44 µM
O=C1c2cc3c(cc2-c2c1c1cc(Cl)c(Cl)cc1c(=O)n2C[C@H](O)CO)OCO3	< 0.01 µM	0.291 µM	0.0243 µM	19 µM	–	–	–	–	< 0.01 µM	0.0786 µM	0.0123 µM	0.217 µM	< 0.01 µM	0.0126 µM	< 0.01 µM	3.78 µM
CCN(Cc1ccc(F)cc1)c1ccc(CO)c(Br)c1	0.966 µM	4.98 µM	–	–	0.15 µM	16.1 µM	18.8 µM	53.1 µM	6.28 µM	39.8 µM	0.0406 µM	0.185 µM	0.0522 µM	0.342 µM	17 µM	46.4 µM
CSc1ccccc1C#C/C=C\C#Cc1ccccc1N	13.6 µM	29.5 µM	16.9 µM	57.4 µM	–	–	8.04 µM	> 100 µM	36.3 µM	81 µM	43.5 µM	> 100 µM	7.83 µM	34.9 µM	–	–
C[C@H]1CN[C@@H]2[C@@H](C)[C@H]3[C@@H](C[C@H]4[C@@H]5CC[C@H]6C[C@@H](N)CC[C@]6(C)[C@H]5CC[C@]34C)O[C@@]2(O)C1	–	7.69 µM	–	14.9 µM	–	26.3 µM	–	7.77 µM	–	9.52 µM	–	3.74 µM	–	4.6 µM	–	–
CN1CC[C@@H](c2c(O)cc(O)c3c(=O)cc(-c4ccc(C(F)(F)F)cc4Cl)oc23)[C@@H]1CO	15.1 µM	32.9 µM	13.9 µM	37.5 µM	14.5 µM	38.3 µM	–	–	6.89 µM	22 µM	26.6 µM	46.7 µM	14.6 µM	32.8 µM	3.21 µM	17 µM
